Data: patent US5436229A, “Bisulfite adducts of arginine aldehydes” (Eli Lilly and Company, priority 1994, dated 1995)
Non-standard residues stand in square brackets, D forms with d. Residues, ends and D or L forms follow the SMILES beside them. dCha = N[C@H](CC1CCCCC1)C(=O)O

Experiments:
human thrombin = human thrombin (Homo sapiens, UniProt P00734); test: Thrombin amidase inhibition (Kass), chromogenic substrate; type: biochemical
How it was run: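 Purified human thrombin (8 NIH units/ml solution) mixed with compound in 50% aqueous methanol and 0.03M Tris, 0.15M NaCl, pH 7.4; chromogenic substrate (0.25 mg/ml solution) added, p-nitroaniline release followed at 405 nm. Free thrombin read from a standard curve; Kass (L/mol) is the mean over a range of compound concentrations.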

factor Xa = target: T1, factor Xa (Homo sapiens, UniProt P00742); test: Serine protease inhibition (Kass), factor Xa; type: biochemical
T1 construct: Human factors X, Xa, IXa, XIa, and XIIa are purchased from Enzyme Research Laboratories; purchased Enzyme Research Laboratories, South Bend, Ind
How it was run: (§1)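 Chromogenic p-nitroanilide substrate assays run as for human thrombin; trypsin with N-Benzoyl-Phe-Val-Arg-p-nitroanilide, human factor Xa with N-Benzoyl-Ile-Glu-Gly-Arg-p-nitroanilide. Values are association constants (Kass).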

Bovine trypsin = target: T2, Bovine trypsin (Bos taurus, UniProt P00760); test: Serine protease inhibition (Kass), trypsin; type: biochemical
T2 construct: Bovine trypsin is purchased from Worthington Biochemicals; purchased Worthington Biochemicals, Freehold, N.J
T2 sequence (P00760 24-246): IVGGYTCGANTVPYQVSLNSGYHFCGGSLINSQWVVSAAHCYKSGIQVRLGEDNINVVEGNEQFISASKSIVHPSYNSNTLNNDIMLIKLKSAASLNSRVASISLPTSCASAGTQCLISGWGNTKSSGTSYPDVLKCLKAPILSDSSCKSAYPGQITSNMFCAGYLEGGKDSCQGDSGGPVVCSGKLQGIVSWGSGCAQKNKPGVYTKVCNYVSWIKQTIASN
How it was run: as §1

Human plasmin = target: T3, Human plasmin (Homo sapiens, UniProt P00747); test: Serine protease inhibition (Kass), plasmin; type: biochemical
T3 construct: Human plasmin is purchased from Boehringer Mannheim; purchased Boehringer Mannheim, Indianapolis, Ind
How it was run: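 Chromogenic enzyme assays run as for human thrombin, giving association constants (Kass). Human plasmin used with H-D-Val-Leu-Lys-p-nitroanilide; t-PA (single-chain nt-PA or modified mt-PA6) with H-D-Ile-Pro-Arg-p-nitroanilide.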

[1] = target: T4, tissue plasminogen activator (t-PA) (Homo sapiens, UniProt P00750); test: Serine protease inhibition (Kass), t-PA; type: biochemical
T4 construct: purchased American Diagnostica, Greenwich, Conn

human plasma [2] = test: Human plasma anticoagulation, thrombin time (TT); type: biochemical
How it was run: (§2)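 Compounds added across a wide concentration range to human plasma; APTT, PT and TT clotting times measured on a coagulation instrument, bovine thrombin used for plasma assays. Concentration doubling clotting time estimated by linear extrapolation.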

human plasma [3] = test: Human plasma anticoagulation, activated partial thromboplastin time (APTT); type: biochemical
How it was run: as §2

human plasma [4] = test: Human plasma anticoagulation, prothrombin time (PT); type: biochemical
How it was run: as §2

[5] = Index of Bioavailability (plasma TT AUC, oral vs i.v.); type: in vivo; conditions: rats, oral vs i.v. bolus
Description: Assays are done in duplicate and averaged.
Each sample population represents alternating sequential time points.

T1 sequence (P00742 235-488 limits assumed): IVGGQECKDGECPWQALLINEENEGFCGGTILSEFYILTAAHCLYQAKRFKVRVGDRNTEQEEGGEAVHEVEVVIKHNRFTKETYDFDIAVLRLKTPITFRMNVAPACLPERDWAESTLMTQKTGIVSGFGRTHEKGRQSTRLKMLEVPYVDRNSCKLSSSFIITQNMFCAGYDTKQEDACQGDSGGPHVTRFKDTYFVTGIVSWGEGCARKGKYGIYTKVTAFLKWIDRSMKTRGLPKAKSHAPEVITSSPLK
T1 sequence (P00742 41-179 partner limits assumed): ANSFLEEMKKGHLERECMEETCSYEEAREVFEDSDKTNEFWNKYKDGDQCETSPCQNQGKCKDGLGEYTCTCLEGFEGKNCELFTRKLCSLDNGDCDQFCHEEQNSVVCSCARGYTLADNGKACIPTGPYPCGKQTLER
T3 sequence (P00747 581-810 limits assumed): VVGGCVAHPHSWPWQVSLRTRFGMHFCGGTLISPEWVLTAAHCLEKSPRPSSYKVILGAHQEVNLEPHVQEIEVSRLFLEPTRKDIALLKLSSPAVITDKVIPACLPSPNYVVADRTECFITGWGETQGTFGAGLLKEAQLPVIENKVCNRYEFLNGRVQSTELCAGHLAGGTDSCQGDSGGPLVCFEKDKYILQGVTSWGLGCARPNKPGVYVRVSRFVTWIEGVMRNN
T3 sequence (P00747 97-580 partner limits assumed): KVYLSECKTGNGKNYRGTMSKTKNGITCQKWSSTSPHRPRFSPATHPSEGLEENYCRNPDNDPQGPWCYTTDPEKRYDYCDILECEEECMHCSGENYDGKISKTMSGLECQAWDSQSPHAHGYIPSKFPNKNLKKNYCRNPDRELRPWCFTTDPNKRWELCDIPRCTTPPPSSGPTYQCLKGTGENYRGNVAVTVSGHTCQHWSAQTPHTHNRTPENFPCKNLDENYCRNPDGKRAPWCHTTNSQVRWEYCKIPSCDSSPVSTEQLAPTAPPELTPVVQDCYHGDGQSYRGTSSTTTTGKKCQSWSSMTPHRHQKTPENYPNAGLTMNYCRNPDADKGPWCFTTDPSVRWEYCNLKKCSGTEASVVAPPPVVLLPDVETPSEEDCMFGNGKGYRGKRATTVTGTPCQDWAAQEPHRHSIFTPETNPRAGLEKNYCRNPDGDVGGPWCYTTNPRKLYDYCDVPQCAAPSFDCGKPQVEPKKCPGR
T4 sequence (P00750 36-562): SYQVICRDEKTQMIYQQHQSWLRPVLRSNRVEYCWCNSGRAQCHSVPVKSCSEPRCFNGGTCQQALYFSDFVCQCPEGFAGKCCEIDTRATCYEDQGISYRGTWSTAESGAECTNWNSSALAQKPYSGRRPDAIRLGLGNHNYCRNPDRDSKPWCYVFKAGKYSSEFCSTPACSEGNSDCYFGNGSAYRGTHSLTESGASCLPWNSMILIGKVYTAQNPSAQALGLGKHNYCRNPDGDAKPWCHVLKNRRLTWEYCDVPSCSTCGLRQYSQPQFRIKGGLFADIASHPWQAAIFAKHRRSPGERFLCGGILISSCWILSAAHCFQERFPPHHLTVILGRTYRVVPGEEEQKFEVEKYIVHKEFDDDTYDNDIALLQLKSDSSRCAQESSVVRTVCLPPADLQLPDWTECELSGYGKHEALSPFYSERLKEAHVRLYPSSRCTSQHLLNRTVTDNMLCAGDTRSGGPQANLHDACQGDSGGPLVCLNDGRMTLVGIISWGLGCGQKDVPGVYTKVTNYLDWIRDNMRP

| SMILES | Kass Human Thrombin (human thrombin) [L/mol × 10^6] | Kass Xa (factor Xa) [L/mol × 10^6] | Kass Trypsin (Bovine trypsin) [L/mol × 10^6] | Kass Plasmin (Human plasmin) [L/mol × 10^6] | Kass t-PA [1] [L/mol × 10^6] | 2 × Clotting time TT (human plasma [2]) [ng/mL] | 2 × Clotting time APTT (human plasma [3]) | 2 × Clotting time PT (human plasma [4]) | Percent Relative Activity (Index of Bioavailability) [5] [%] |
| --- | --- | --- | --- | --- | --- | --- | --- | --- | --- |
| Cl.N=C(N)NCCC[C@@H](C=O)NC(=O)[C@@H]1CCCN1C(=O)[C@@H](Cc1ccccc1)NS(=O)(=O)c1ccc(C(=O)O)cc1 [Example 62, N-(4-carboxyphenylsulfonyl)-D-phenylalanyl-L-Prolinyl-L-Arginine Aldehyde Hydrochloride] | 70 | 2.0 | 43 | 7.0 | 1.1 | 120 | 1,200 ng/mL | 3,000 ng/mL | 13 |
| CCS(=O)(=O)N[C@H](CC1CCCCC1)C(=O)N1CCC[C@H]1C(=O)N[C@H](C=O)CCCNC(=N)N.Cl [Example 65, N-(ethylsulfonyl)-D-cyclohexylalanyl-L-Prolinyl-L-Arginine Aldehyde Hydrochloride] | 550 | 20 | 200 | 45 | 0.73 | 25 | 260 ng/mL | 730 ng/mL | 19 |
| CC(=O)N[C@H](CC1CCCCC1)C(=O)N1CCC[C@H]1C(=O)N[C@H](C=O)CCCNC(=N)N.Cl [Example 72, N-(acetyl)-D-cyclohexylalanyl-L-Prolinyl-L-Arginine Aldehyde Hydrochloride] (Ac-[dCha]-Pro-Arg-aldehyde) | 26 | 1.1 | 12 | 0.61 | 0.035 | 92 | 1,900 ng/mL | 3,500 ng/mL | 9 |
| Cl.N=C(N)NCCC[C@@H](C=O)NC(=O)[C@@H]1CCCN1C(=O)[C@@H](Cc1ccccc1)NCC1CCCCC1 [Example 74, N-(cyclohexylmethyl)-D-phenylalanyl-L-Prolinyl-L-Arginine Aldehyde Hydrochloride] | 480 | 0.11 | 69 | 0.49 | 0.046 | 16 | 860 ng/mL | 1,200 ng/mL | 1 |
| CCOC(=O)N[C@H](Cc1ccccc1)C(=O)N1CCC[C@H]1C(=O)N[C@H](C=O)CCCNC(=N)N.Cl [Example 77, N-(ethoxycarbonyl)-D-phenylalanyl-L-Prolinyl-L-Arginine Aldehyde Hydrochloride] | 170 | 2.3 | 240 | 16 | 2.5 | 22 | 390 ng/mL | 2,000 ng/mL | 14 |
